How the values were obtained:
mouse (BALB/c, male) = assay: Effect of lipopolysaccharide induction on neutrophilic infiltration in mouse lung; type: in vivo; conditions: neutrophil infiltration in BAL fluid, LPS-exposed BALB/c mouse, oral; for inhibition in vivo at 1 mg/kg / inhibition in vivo at 3 mg/kg: 5 h, read-out: SUPPRESSION RATIO
Experimental: Effect of Lipopolysaccharide Induction on Neutrophilic Infiltration in Mouse Lung A compound to be tested was orally administrated to a mouse (BALB/c, male), and after 30 minutes, the mouse was placed in a plastic container. Lipopolysaccharide (0.3 mg/mL) dissolved in physiological saline was aerosolized with an ultrasonic wave nebulizer (NE-U17, OMRON Corporation), and exposed to the mouse for 10 minutes. After 5 hours, the anesthetized mouse was sacrificed by exsanguination. A cannula was inserted in the respiratory tract and bronchoalveolar lavage (BAL) with 1 mL of 0.85% NaCl liquid containing 0.4% sodium citrate was carried out. This operation was repeated 3 times, to obtain a BAL fluid. The BAL fluid was centrifuged at 4° C. and ×200 g for 5 minutes, and the pellet was suspended in a physiological saline containing 0.1% BSA. The number of white blood cells was counted using Turks solution with a microscope, and the total white blood cell count was calculated. The white blood cells were fixed on a glass slide using Cytospin 3 (Thermo BioAnalysis Japan K. K.). The cells were stained with Diff-Quik (SYSMEX INTERNATIONAL REAGENTS CO., LTD.), and the number thereof was counted with a microscope, and the neutrophil ratio was calculated. The neutrophil ratio was multiplied by the total white blood cell count to calculate the total neutrophil count. An effect of the compound to be tested represents a percentage (%) of suppression ratio relative to the neutrophil count in a control.

human FPRL1 = molecular target: T1, human FPRL1 (Homo sapiens, UniProt P25090); assay: Measurement test of agonist activity on human FPRL1 (test of calcium mobilization in cell, HEK293 with human FPRL1 and Gα15 expression vectors); type: cell-based; conditions: calcium mobilization in HEK293 cells with human FPRL1 and Gα15 expression vectors
T1 construct: expressed in transfected cells; host or cells: HEK293 (JCRB9068, NIBIO), transient transfection with pCMV-script vectors using Lipofectamine 2000
T1 sequence (P25090 1-351): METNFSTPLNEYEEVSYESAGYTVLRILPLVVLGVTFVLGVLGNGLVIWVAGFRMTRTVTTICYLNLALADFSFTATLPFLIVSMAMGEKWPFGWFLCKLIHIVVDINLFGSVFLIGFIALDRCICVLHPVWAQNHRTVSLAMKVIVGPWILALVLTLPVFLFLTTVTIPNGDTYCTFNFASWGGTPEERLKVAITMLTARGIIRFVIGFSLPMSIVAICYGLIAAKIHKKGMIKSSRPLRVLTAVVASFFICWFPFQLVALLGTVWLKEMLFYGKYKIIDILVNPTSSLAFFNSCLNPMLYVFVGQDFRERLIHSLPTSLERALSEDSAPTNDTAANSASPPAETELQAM
Outline: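 HEK293 transiently co-transfected with human FPRL1 and Gα15, plated 24 h before assay, loaded with Fluo-4 NW dye plus probenecid. Compounds in eight 10-fold dilutions (DMSO stocks 10^−2 to 10^−9 M, then diluted 100-fold in assay buffer); calcium mobilization read on Flexstation for EC50.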

| SMILES | EC50 (human FPRL1) [nM] | inhibition in vivo at 1 mg/kg (mouse (BALB/c, male); dose 1 mg/kg) [%] | SUPPRESSION RATIO (%) (mouse (BALB/c, male); dose 3 mg/kg) | inhibition in vivo at 3 mg/kg (mouse (BALB/c, male); dose 3 mg/kg) [%] | SUPPRESSION RATIO (%) (mouse (BALB/c, male); dose 1 mg/kg) |
| --- | --- | --- | --- | --- | --- |
| COc1cc(F)c([C@@H]2CNC(=O)[C@H]2NC(=O)Nc2ccc(F)cc2)c(F)c1 (single isomer, unassigned) [EXAMPLE 1-12, (−)-1-[(3S*,4R*)-4-(2,6-difluoro-4-methoxyphenyl)-2-oxopyrrolidin-3-yl]-3-(4-fluorophenyl)urea] | 0.06 | 96.8 | – | – | – |
| COc1cc(F)c([C@@H]2CNC(=O)[C@H]2NC(=O)Nc2ccc(Cl)cc2)c(F)c1 (single isomer, unassigned) [EXAMPLE 1-22, (−)-1-(4-chlorophenyl)-3-[(3S*,4R*)-4-(2,6-difluoro-4-methoxyphenyl)-2-oxopyrrolidin-3-yl]urea] | 0.11 | 93.1 | – | – | – |
| COc1cc(F)c([C@@H]2CNC(=O)[C@H]2NC(=O)Nc2ccc(F)c(O)c2)c(F)c1 (relative stereo) [Example 1-71, (−)-1-[(3S*,4R*)-4-(2,6-difluoro-4-methoxyphenyl)-2-oxopyrrolidin-3-yl]-3-(4-fluoro-3-hydroxyphenyl)urea] | 0.09 | – | 79.7 | – | – |
| COc1cc(F)c([C@@H]2CNC(=O)[C@H]2NC(=O)Nc2ccc(Cl)c(O)c2)c(F)c1 (relative stereo) [Example 1-72, (−)-1-(4-chloro-3-hydroxyphenyl)-3-[(3S*,4R*)-4-(2,6-difluoro-4-methoxyphenyl)-2-oxopyrrolidin-3-yl]urea] | 0.05 | – | 93.3 | – | – |
| COc1ccc([C@@H]2CNC(=O)C2NC(=O)Nc2ccc(F)cc2)cc1 (mixture of isomers) [Example 1-54, (±)-trans-1-(4-fluorophenyl)-3-[4-(4-methoxyphenyl)-2-oxopyrrolidin-3-yl]urea] | 0.11 | – | – | 98.6 | – |
| N#Cc1ccc(NC(=O)N[C@@H]2C(=O)NC[C@H]2c2cc3c(cc2F)OCC3)cc1 (relative stereo) [Example 1-84, (−)-1-(4-cyanophenyl)-3-[(3S*,4R*)-4-(6-fluoro-2,3-dihydrobenzofuran-5-yl)-2-oxopyrrolidin-3-yl]urea] | 1.92 | – | – | – | 99.2 |
| COc1ccc([C@@H]2CNC(=O)[C@H]2NC(=O)Nc2ccc(F)cc2)c(F)c1 (single isomer, unassigned) [EXAMPLE 1-9, (−)-1-[(3S*,4R*)-4-(2-fluoro-4-methoxyphenyl)-2-oxopyrrolidin-3-yl]-3-(4-fluorophenyl)urea] | 0.45 | – | – | 98.5 | – |
| COc1ccc([C@@H]2CNC(=O)[C@H]2NC(=O)Nc2ccc(F)cc2)cc1 (single isomer, unassigned) [EXAMPLE 1-1, (−)-1-(4-Fluorophenyl)-3-[(3S*,4R*)-4-(4-methoxyphenyl)-2-oxopyrrolidin-3-yl]urea] | 0.09 | 95.1 | – | – | – |
| COc1cc(F)c([C@@H]2CNC(=O)[C@H]2NC(=O)Nc2ccccc2)c(F)c1 (relative stereo) [Example 7-2, (−)-1-[(3S*,4R*)-4-(2,6-difluoro-4-methoxyphenyl)-2-oxopyrrolidin-3-yl]-3-phenylurea] | 0.45 | – | – | – | 87.7 |
| COc1cc(F)c([C@@H]2CNC(=O)[C@H]2NC(=O)Nc2ccc(Cl)nc2)c(F)c1 (relative stereo) [Example 1-31, (−)-1-(6-chloropyridin-3-yl)-3-[(3S*,4R*)-4-(2,6-difluoro-4-methoxyphenyl)-2-oxopyrrolidin-3-yl]urea] | 2.67 | 69.7 | – | – | – |
| COc1cnc([C@@H]2CNC(=O)[C@H]2NC(=O)Nc2ccc(F)cc2)c(F)c1 (single isomer, unassigned) [EXAMPLE 1-18, (−)-1-[(3S*,4R*)-4-(3-fluoro-5-methoxypyridin-2-yl)-2-oxopyrrolidin-3-yl]-3-(4-fluorophenyl)urea] | 0.36 | 98.3 | – | – | – |
| COc1ccc([C@@H]2CNC(=O)[C@H]2NC(=O)Nc2ccc(Cl)cc2)cc1 (single isomer, unassigned) [EXAMPLE 1-2, (-)-1-(4-chlorophenyl)-3-[(3S*,4R*)-4-(4-methoxyphenyl)-2-oxopyrrolidin-3-yl]urea] | 0.09 | 99.2 | – | – | – |
| COc1ccc([C@@H]2CN(C)C(=O)C2NC(=O)Nc2ccc(Cl)cc2)cc1 (mixture of isomers) [Example 1-55, (±)-trans-1-(4-chlorophenyl)-3-[4-(4-methoxyphenyl)-1-methyl-2-oxopyrrolidin-3-yl]urea] | 1.02 | – | – | 83.7 | – |

Continued, in another order:

| EC50 (human FPRL1) [nM] | SMILES | inhibition in vivo at 1 mg/kg (mouse (BALB/c, male); dose 1 mg/kg) [%] | SUPPRESSION RATIO (%) (mouse (BALB/c, male); dose 3 mg/kg) | inhibition in vivo at 3 mg/kg (mouse (BALB/c, male); dose 3 mg/kg) [%] | SUPPRESSION RATIO (%) (mouse (BALB/c, male); dose 1 mg/kg) |
| --- | --- | --- | --- | --- | --- |
| 0.13 | CO/N=C1\NC[C@@H](c2ccc(OC)cc2)[C@@H]1NC(=O)Nc1ccc(F)cc1 (single isomer, unassigned) [EXAMPLE 32-1, (−)-1-(4-Fluorophenyl)-3-[(3S*,4R*,Z)-2-(methoxyimino)-4-(4-methoxyphenyl)pyrrolidin-3-yl]urea] | – | – | 99 | – |
| 0.07 | COc1cc(F)c([C@@H]2CN(CCO)C(=O)[C@H]2NC(=O)Nc2ccc(F)cc2)c(F)c1 (single isomer, unassigned) [EXAMPLE 26-1, (−)-1-[(3S*,4R*)-4-(2,6-Difluoro-4-methoxyphenyl)-1-(2-hydroxyethyl)-2-oxopyrrolidin-3-yl]-3-(4-fluorophenyl)urea] | 99.6 | – | – | – |
| 0.03 | COc1cc(F)c([C@@H]2CN/C(=N\OCCO)[C@H]2NC(=O)Nc2ccc(F)cc2)c(F)c1 (single isomer, unassigned) [EXAMPLE 32-5, (−)-1-{(3S*,4R*,Z)-4-(2,6-difluoro-4-methoxyphenyl)-2-[(2-hydroxyethoxy)imino]pyrrolidin-3-yl}-3-(4-fluorophenyl)urea] | 99.8 | – | – | – |
| 0.86 | COc1cc(F)c([C@@H]2CNC(=O)[C@H]2NC(=O)Nc2ccc(C)cc2)c(F)c1 (relative stereo) [Example 9-1, (−)-1-[(3S*,4R*)-4-(2,6-Difluoro-4-methoxyphenyl)-2-oxopyrrolidin-3-yl]-3-(p-tolyl)urea] | – | 57.0 | – | – |
| 0.04 | COc1ccc([C@@H]2CN(CCO)C(=O)[C@H]2NC(=O)Nc2ccc(F)cc2)c(F)c1 (single isomer, unassigned) [EXAMPLE 25-1, (−)-1-[(3S*,4R*)-4-(2-Fluoro-4-methoxyphenyl)-1-(2-hydroxyethyl)-2-oxopyrrolidin-3-yl]-3-(4-fluorophenyl)urea] | – | – | 99.1 | – |
| 0.05 | CO/N=C1\NC[C@@H](c2c(F)cc(OC)cc2F)[C@@H]1NC(=O)Nc1ccc(F)cc1 (single isomer, unassigned) [EXAMPLE 32-3, (−)-1-[(3S*,4R*,Z)-4-(2,6-difluoro-4-methoxyphenyl)-2-(methoxyimino)pyrrolidin-3-yl]-3-(4-fluorophenyl)urea] | – | – | 99.1 | – |
| 0.27 | COc1cc(F)c([C@@H]2CN/C(=N\OCCO)[C@H]2NC(=O)Nc2ccc(C)cc2)c(F)c1 (single isomer, unassigned) [EXAMPLE 32-12, (−)-1-{(3S*,4R*,Z)-4-(2,6-difluoro-4-methoxyphenyl)-2-[(2-hydroxyethoxy)imino]pyrrolidin-3-yl}-3-(p-tolyl)urea] | – | – | – | 96.8 |

From patent US9822069B2, “Urea derivative or pharmacologically acceptable salt thereof” (KYORIN PHARMACEUTICAL CO. LTD., priority 2013, dated 2017)
